{"source": "paper PMC7782785", "about": "“Outer-membrane-acting peptides and lipid II-targeting antibiotics cooperatively kill Gram-negative pathogens” (Communications Biology, 2021)", "key": {"HEK-293 cells": {"tested_on": "HEK-293 cells", "assay": "Cytotoxicity, cell viability (CellTiter-Glo)", "details": "for Cell viability (% of control): HEK-293, CellTiter-Glo", "experimental": "96-well plates were seeded with HEK-293 cells at a concentration of 3*10^5 cells/well in 100 µL of DMEM growth medium supplemented with 1% NEAA and 10% FBS. Border wells were filled with 100 µL of sterile PBS. […] ATP levels were measured by adding 50 µL of CellTiter-Glo reagent (Promega, Madison, US) to each well, and luminescence was measured with a SpectraMax i3 microplate reader after 5 minutes of incubation. The potential effect of the tested compounds on cell viability was determined by comparing the signal obtained in the presence of different concentrations of the compounds with those obtained in the control wells. All these tests were performed in triplicate."}, "[1]": {"tested_on": "all the Gram-negative strains tested", "assay": "organism not typed", "procedure": "(§1) MIC tests were performed in triplicate by liquid growth inhibition microdilution assays in sterile polypropylene microtiter plates according to the Clinical and Laboratory Standards Institute (CLSI) guideline for bacteria that grow aerobically. Briefly, the indicator strains were first streaked on the appropriate agar plate, and then single colonies were picked and incubated overnight in liquid broth. The final inoculum of bacteria was 5*10^5 CFU/mL prepared in CAMHB (cationic adjusted Mueller–Hinton broth, Sigma-Aldrich) or CAMHB plus 5% of lysed horse blood (TCS Biosciences, Buckingham, UK) in the case of S. pneumoniae. The antimicrobials were 2-fold serially diluted and 50 µL diluted bacterial suspension was added to each well to make the final volume 100 µL. The microtiter plates and the count plates were incubated at 37 °C for 16–20 h without shaking. Growth inhibition was assessed by measuring the OD600 using a microplate reader (Tecan Infinity F200). The lowest concentration of the antimicrobials that inhibits visible growth of the indicator strain is identified as the MIC value.\n(§2) The condition for the tests and the analysis of the plates were performed as described above for the MIC tests.\nHemolytic activity was determined with fresh human red blood cells (hRBCs)[28]. The hRBCs were centrifuged (1000×g, 5 min) and the supernatant was discarded. The pellets were washed three times with PBS and diluted in PBS to make the cell stock solution with a cell density of 2*10^8 cells/mL. […] 1% Triton X-100 and PBS were used as controls. […] The supernatant was transferred to a new 96-well plate and hemolysis was monitored by measuring the absorbance at 450 nm (OD450). Hemolysis levels were calculated as percentage. % hemolysis = 100 × (As−A0)/(At−A0), where As, A0, and At are the absorbance of the hRBCs suspension in PBS with antimicrobial agents (As), without antimicrobial agents (A0), and with 1% Triton X-100 (At). […] For the TI calculation (TI = MHC/GM), other factors as the GM (geometric mean of MIC value of all the Gram-negative strains tested) were calculated."}, "[2]": {"tested_on": "P. aeruginosa ATCC BAA-2108", "assay_type": "cell-based", "details": "checkerboard", "procedure": "(§3) For the synergy test, standard checkerboard broth microdilution assays were conducted to test the synergistic effect of combined antimicrobials using the same condition as before[51],[56]. […] The initial concentration of both peptides was their individual MIC. 50 µL fresh bacterial suspension prepared as above was added to the wells already containing the antimicrobial compound mixture to achieve 100 µL final volume per well.\n(§4) The fractional inhibitory concentration (FIC) indices[57] were calculated using the formula FICI = FICa + FICb = MICac/MICa + MICbc/MICb, to determine whether the combination is additive, synergistic or antagonistic[51],[57]. The MICa and MICb is the MIC of compound A or B alone, respectively. MICac is the MIC of compound A in combination with compound B and MICbc is the MIC of compound B when it was combined with compound A. The FIC corresponds to the MIC of a compound in combination with the other compound, divided by the MIC of the compound alone. FICa is FIC of compound A while FICb is FIC of compound B. The FICI was interpreted according to EUCAST[58] as follows: synergistic, FICI ≤ 0.5; additive,0.5 < FICI ≤ 1; indifferent, 1 < FICI < 2; antagonistic, FICI ≥ 2."}, "A. baumannii ATCC 17978": {"tested_on": "A. baumannii ATCC 17978", "assay_type": "cell-based", "details": "checkerboard", "procedure": "as §3, §4"}, "[3]": {"tested_on": "A. baumannii ATCC BAA-1605", "assay_type": "cell-based", "details": "checkerboard", "procedure": "as §3, §4"}, "[4]": {"tested_on": "K. pneumoniae ATCC BAA-2524", "assay_type": "cell-based", "details": "checkerboard", "procedure": "as §3, §4"}, "E. coli B1927": {"tested_on": "E. coli B1927", "assay_type": "cell-based", "details": "checkerboard", "procedure": "as §3, §4"}, "E. coli ATCC BAA-2452": {"tested_on": "E. coli ATCC BAA-2452", "assay_type": "cell-based", "details": "checkerboard", "procedure": "as §3, §4"}, "E. coli ATCC 25922": {"tested_on": "E. coli ATCC 25922", "assay_type": "cell-based", "details": "checkerboard", "procedure": "as §3, §4"}, "P. aeruginosa B1954": {"tested_on": "P. aeruginosa B1954", "assay_type": "cell-based", "details": "checkerboard", "procedure": "as §3, §4"}, "K. pneumoniae B1945": {"tested_on": "K. pneumoniae B1945", "assay_type": "cell-based", "details": "checkerboard", "procedure": "as §3, §4"}, "P. aeruginosa ATCC 27853": {"tested_on": "P. aeruginosa ATCC 27853", "assay_type": "cell-based", "details": "checkerboard", "procedure": "as §3, §4"}, "A. baumannii B2026": {"tested_on": "A. baumannii B2026", "assay_type": "cell-based", "details": "checkerboard", "procedure": "as §3, §4"}, "P. aeruginosa PA14": {"tested_on": "P. aeruginosa PA14", "assay_type": "cell-based", "details": "checkerboard", "procedure": "as §3, §4"}, "E. coli LMG 15862": {"tested_on": "E. coli LMG 15862", "assay": "microbe, parasite or virus in culture", "details": "Escherichia coli, LMG15862", "procedure": "as §1, §2"}, "A. baumannii LMG 01041": {"tested_on": "A. baumannii LMG 01041", "assay": "microbe, parasite or virus in culture", "details": "Acinetobacter baumannii, LMG01041", "procedure": "as §1, §2"}, "P. aeruginosa LMG 6395": {"tested_on": "P. aeruginosa LMG 6395", "assay": "microbe, parasite or virus in culture", "details": "Pseudomonas aeruginosa, LMG6395", "procedure": "as §1, §2"}, "K. pneumoniae LMG 20218": {"tested_on": "K. pneumoniae LMG 20218", "assay": "microbe, parasite or virus in culture", "details": "Klebsiella pneumoniae, LMG20218", "procedure": "as §1, §2"}, "E. aerogenes LMG 02094": {"tested_on": "E. aerogenes LMG 02094", "assay": "microbe, parasite or virus in culture", "details": "Klebsiella aerogenes, LMG02094", "procedure": "as §1, §2"}}, "data": [{"smiles": "CN[C@H](CC(C)C)C(=O)N[C@H]1C(=O)N[C@@H](CC(N)=O)C(=O)N[C@H]2C(=O)N[C@H]3C(=O)N[C@H](C(=O)N[C@H](C(=O)O)c4cc(O)cc(O)c4-c4cc3ccc4O)[C@H](O)c3ccc(c(Cl)c3)Oc3cc2cc(c3O[C@@H]2O[C@H](CO)[C@@H](O)[C@H](O)[C@H]2O[C@H]2C[C@](C)(N)[C@H](O)[C@H](C)O2)Oc2ccc(cc2Cl)[C@H]1O", "note": "[Vancomycin]", "values": [{"measurement": "Cell viability (% of control)", "setting": "HEK-293 cells; 22 µM (22/22 µM for the combination), replicate 1", "result": "96 % of control"}, {"measurement": "Cell viability (% of control)", "setting": "HEK-293 cells; 22 µM (22/22 µM for the combination), replicate 2", "result": "107 % of control"}, {"measurement": "Cell viability (% of control)", "setting": "HEK-293 cells; 22 µM (22/22 µM for the combination), replicate 3", "result": "113 % of control"}, {"measurement": "Cell viability (% of control)", "setting": "HEK-293 cells; 44 µM (44/44 µM for the combination), replicate 1", "result": "110 % of control"}, {"measurement": "Cell viability (% of control)", "setting": "HEK-293 cells; 44 µM (44/44 µM for the combination), replicate 2", "result": "102 % of control"}, {"measurement": "Cell viability (% of control)", "setting": "HEK-293 cells; 44 µM (44/44 µM for the combination), replicate 3", "result": "114 % of control"}, {"measurement": "Cell viability (% of control)", "setting": "HEK-293 cells; 88 µM (88/88 µM for the combination), replicate 1", "result": "103 % of control"}, {"measurement": "Cell viability (% of control)", "setting": "HEK-293 cells; 88 µM (88/88 µM for the combination), replicate 3", "result": "114 % of control"}, {"measurement": "effect on viability of HEK-293 cells", "setting": "HEK-293 cells; all the concentrations tested (up to 88 µM)", "result": "did not affect the viability"}, {"measurement": "increase of MIC against Gram-negative pathogens when LPS was in the medium", "setting": "[1]; LPS 1 mg/mL, vancomycin: except against A. baumannii", "result": 2, "unit": "fold"}, {"measurement": "MIC", "setting": "[1]; read-out: GM, MIC geometric mean against all the Gram-negative strains tested", "result": 87.7, "unit": "µM"}, {"measurement": "MICAB: MIC of vancomycin in combination with D-11 at the MICAC concentration", "setting": "[2]", "result": 44.15, "unit": "µM"}, {"measurement": "MICAB: MIC of vancomycin in combination with D-11 at the MICAC concentration", "setting": "A. baumannii ATCC 17978", "result": 5.52, "unit": "µM"}, {"measurement": "MICAB: MIC of vancomycin in combination with D-11 at the MICAC concentration", "setting": "[3]", "result": 2.76, "unit": "µM"}, {"measurement": "MICAB: MIC of vancomycin in combination with D-11 at the MICAC concentration", "setting": "[4]", "result": 11.04, "unit": "µM"}, {"measurement": "MICAB: MIC of vancomycin in combination with D-11 at the MICAC concentration", "setting": "E. coli B1927", "result": 5.52, "unit": "µM"}, {"measurement": "MICAB: MIC of vancomycin in combination with D-11 at the MICAC concentration", "setting": "E. coli ATCC BAA-2452", "result": 2.76, "unit": "µM"}, {"measurement": "MICAB: MIC of vancomycin in combination with D-11 at the MICAC concentration", "setting": "E. coli ATCC 25922", "result": 5.52, "unit": "µM"}, {"measurement": "MICAB: MIC of vancomycin in combination with D-11 at the MICAC concentration", "setting": "P. aeruginosa B1954", "result": 44.15, "unit": "µM"}, {"measurement": "MICAB: MIC of vancomycin in combination with D-11 at the MICAC concentration", "setting": "K. pneumoniae B1945", "result": 11.04, "unit": "µM"}, {"measurement": "MICAB: MIC of vancomycin in combination with D-11 at the MICAC concentration", "setting": "P. aeruginosa ATCC 27853", "result": 11.04, "unit": "µM"}, {"measurement": "MICAB: MIC of vancomycin in combination with D-11 at the MICAC concentration", "setting": "A. baumannii B2026", "result": 2.76, "unit": "µM"}, {"measurement": "MICAB: MIC of vancomycin in combination with D-11 at the MICAC concentration", "setting": "P. aeruginosa PA14", "result": 32, "unit": "µM"}, {"measurement": "MIC", "setting": "E. coli LMG 15862", "result": 64, "unit": "µM"}, {"measurement": "MIC", "setting": "A. baumannii LMG 01041", "result": 32, "unit": "µM"}, {"measurement": "MIC", "setting": "P. aeruginosa LMG 6395", "result": 128, "unit": "µM"}, {"measurement": "MIC", "setting": "K. pneumoniae LMG 20218", "result": 128, "unit": "µM"}, {"measurement": "MIC", "setting": "E. aerogenes LMG 02094", "result": 192, "unit": "µM"}]}]}
